# How the values were obtained:
# Type in all cases: biochemical
# AKT2 = target: T1, AKT2 (Homo sapiens, UniProt P31751); assay: AKT Kinase Assay (IMAP fluorescent polarisation) vs AKT2
# T1 construct: purchased SignalChem
# Method in brief: (§1)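 Phosphorylation of FAM-Crosstide detected by IMAP binding and fluorescence polarisation (485/528 nm), with IC50 fitted from % inhibition versus vehicle. Compound was incubated 45 min with enzyme, then reacted 1 h at room temperature with ATP and peptide in Tris/MgCl2/DTT buffer. Dose response had fourteen half-log points.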
# AKT1 = target: T2, AKT1 (Homo sapiens, UniProt P31749); assay: AKT Kinase Assay (IMAP fluorescent polarisation) vs AKT1
# T2 construct: purchased SignalChem
# Method in brief: as §1
# AKT3 = target: T3, AKT3 (Homo sapiens, UniProt Q9Y243); assay: AKT Kinase Assay (IMAP fluorescent polarisation) vs AKT3
# T3 construct: purchased SignalChem
# Method in brief: as §1
# T1 sequence (P31751 whole entry): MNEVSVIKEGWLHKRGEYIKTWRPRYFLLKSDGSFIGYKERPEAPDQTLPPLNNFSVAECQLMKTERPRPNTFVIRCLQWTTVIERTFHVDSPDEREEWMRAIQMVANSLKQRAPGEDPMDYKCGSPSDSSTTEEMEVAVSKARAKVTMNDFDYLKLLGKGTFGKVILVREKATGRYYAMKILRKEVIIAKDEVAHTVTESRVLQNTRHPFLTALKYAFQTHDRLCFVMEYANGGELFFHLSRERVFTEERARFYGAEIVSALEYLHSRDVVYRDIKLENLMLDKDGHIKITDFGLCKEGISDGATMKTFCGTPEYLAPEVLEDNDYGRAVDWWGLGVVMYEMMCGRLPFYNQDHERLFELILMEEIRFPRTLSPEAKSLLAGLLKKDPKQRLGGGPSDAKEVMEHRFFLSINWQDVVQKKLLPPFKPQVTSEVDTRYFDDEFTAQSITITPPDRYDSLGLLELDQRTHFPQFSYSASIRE
# T3 sequence (Q9Y243 whole entry): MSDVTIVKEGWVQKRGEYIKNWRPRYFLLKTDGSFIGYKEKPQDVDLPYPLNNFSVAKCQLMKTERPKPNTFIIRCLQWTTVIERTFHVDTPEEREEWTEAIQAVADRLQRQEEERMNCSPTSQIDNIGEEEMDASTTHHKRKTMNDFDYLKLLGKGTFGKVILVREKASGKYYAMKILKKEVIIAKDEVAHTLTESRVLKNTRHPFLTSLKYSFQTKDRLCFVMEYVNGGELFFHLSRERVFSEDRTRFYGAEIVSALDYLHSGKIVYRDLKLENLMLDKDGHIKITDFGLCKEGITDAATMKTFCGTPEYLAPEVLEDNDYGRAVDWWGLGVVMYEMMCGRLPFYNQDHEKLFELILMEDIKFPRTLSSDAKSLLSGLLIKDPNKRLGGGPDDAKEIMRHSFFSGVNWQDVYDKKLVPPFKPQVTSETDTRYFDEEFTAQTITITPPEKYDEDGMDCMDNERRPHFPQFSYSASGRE
# T2 sequence (P31749 whole entry): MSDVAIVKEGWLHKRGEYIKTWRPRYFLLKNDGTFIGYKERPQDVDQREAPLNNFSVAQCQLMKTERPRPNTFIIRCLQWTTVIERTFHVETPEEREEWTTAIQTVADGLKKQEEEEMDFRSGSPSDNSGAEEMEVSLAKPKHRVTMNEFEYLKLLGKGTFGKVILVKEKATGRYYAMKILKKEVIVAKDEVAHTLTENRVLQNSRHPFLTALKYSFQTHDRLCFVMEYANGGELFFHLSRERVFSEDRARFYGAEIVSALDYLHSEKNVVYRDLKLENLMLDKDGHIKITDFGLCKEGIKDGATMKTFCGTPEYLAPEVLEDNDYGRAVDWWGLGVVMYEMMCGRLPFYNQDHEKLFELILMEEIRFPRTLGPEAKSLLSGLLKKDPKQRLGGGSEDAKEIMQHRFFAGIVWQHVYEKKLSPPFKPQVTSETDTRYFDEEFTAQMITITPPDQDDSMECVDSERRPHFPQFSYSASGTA
Compound,IC50 (AKT2) [µM],IC50 (AKT1) [µM],IC50 (AKT3) [µM]
"C=CCN1C(=O)COc2nc(-c3ccc(C4(N)CCC4)cc3)c(-c3ccccc3)cc21 [Example 67, 1-allyl-6-(4-(1-aminocyclobutyl)phenyl)-7-phenyl-1H-pyrido[2,3-b][1,4]oxazin-2(3H)-one]",≤ 0.1,0.1 to 1,1 to 10
"CN1CCc2nc(-c3ccc(C4(N)CCC4)cc3)c(-c3ccccc3)cc2C1=O [Example 23, 2-(4-(1-aminocyclobutyl)phenyl)-6-methyl-3-phenyl-7,8-dihydro-1,6-naphthyridin-5(6H)-one]",1 to 10,0.1 to 1,> 10
"CN1C(=O)NCc2nc(-c3ccc(C4(N)CCC4)cc3)c(-c3ccccc3)cc21 [Example 108, 6-(4-(1-aminocyclobutyl)phenyl)-1-methyl-7-phenyl-3,4-dihydropyrido[3,2-d]pyrimidin-2(1H)-one]",0.1 to 1,0.1 to 1,1 to 10
"NC1(c2ccc(-c3nc4c(cc3-c3ccccc3)-n3c(nnc3-c3ccccn3)CO4)cc2)CCC1 [Example 130, 1-(4-(8-phenyl-1-(pyridin-2-yl)-4H-pyrido[2,3-b][1,2,4]triazolo[4,3-d][1,4]oxazin-7-yl)phenyl)cyclobutanamine]",> 10,0.1 to 1,> 10
"NC1(c2ccc(-c3nc4c(cc3-c3ccccc3)-n3c(nnc3-c3cccnc3)CO4)cc2)CCC1 [Example 122, 1-(4-(8-phenyl-1-(pyridin-3-yl)-4H-pyrido[2,3-b][1,2,4]triazolo[4,3-d][1,4]oxazin-7-yl)phenyl)cyclobutanamine]",1 to 10,0.1 to 1,1 to 10
"CN1C(=O)COc2nc(-c3ccc([C@]4(N)C[C@H](O)C4)cc3)c(-c3ccccc3)cc21 [Example 137, 6-(4-((1r,3r)-1-amino-3-hydroxycyclobutyl)phenyl)-1-methyl-7-phenyl-1H-pyrido[2,3-b][1,4]oxazin-2(3H)-one]",0.1 to 1,≤ 0.1,1 to 10
"Cc1nc2c([nH]1)CCc1nc(-c3ccc(C4(N)CCC4)cc3)c(-c3ccccc3)cc1-2 [Example 15, 1-(4-(2-methyl-8-phenyl-4,5-dihydro-3H-imidazo[4,5-f]quinolin-7-yl)phenyl)cyclobutanamine]",1 to 10,0.1 to 1,1 to 10
"N[C@]1(c2ccc(-c3nc4c(cc3-c3ccccc3)N(CC3CC3)C(=O)CO4)cc2)C[C@H](O)C1 [Example 140, 6-(4-((1s,3s)-1-amino-3-hydroxycyclobutyl)phenyl)-1-(cyclopropylmethyl)-7-phenyl-1H-pyrido[2,3-b][1,4]oxazin-2(3H)-one]",0.1 to 1,0.1 to 1,1 to 10
"N#CCCCCN1C(=O)COc2nc(-c3ccc(C4(N)CCC4)cc3)c(-c3ccccc3)cc21 [Example 66, 5-(6-(4-(1-aminocyclobutyl)phenyl)-2-oxo-7-phenyl-2,3-dihydro-1H-pyrido[2,3-b][1,4]oxazin-1-yl)pentanenitrile]",0.1 to 1,0.1 to 1,1 to 10
"NC1(c2ccc(-c3nc4c(cc3-c3ccccc3)N(CC(F)F)C(=O)CO4)cc2)CCC1 [Example 85, 6-(4-(1-aminocyclobutyl)phenyl)-1-(2,2-difluoroethyl)-7-phenyl-1H-pyrido[2,3-b][1,4]oxazin-2(3H)-one]",≤ 0.1,0.1 to 1,0.1 to 1
"NC1(c2ccc(-c3nc4c(cc3-c3ccccc3)N(Cc3ccncc3)C(=O)CO4)cc2)CCC1 [Example 45, 6-(4-(1-aminocyclobutyl)phenyl)-7-phenyl-1-(pyridin-4-ylmethyl)-1H-pyrido[2,3-b][1,4]oxazin-2(3H)-one]",0.1 to 1,1 to 10,1 to 10
"CC(C)c1nnc2n1-c1cc(-c3ccccc3)c(-c3ccc(C4(N)CCC4)cc3)nc1OC2 [Example 112, 1-(4-(1-isopropyl-8-phenyl-4H-pyrido[2,3-b][1,2,4]triazolo[4,3-d][1,4]oxazin-7-yl)phenyl)cyclobutanamine]",1 to 10,0.1 to 1,1 to 10
"NC1(c2ccc(-c3nc4c(cc3-c3ccccc3)N(CC3CCC3)C(=O)CO4)cc2)CCC1 [Example 48, 6-(4-(1-aminocyclobutyl)phenyl)-1-(cyclobutylmethyl)-7-phenyl-1H-pyrido[2,3-b][1,4]oxazin-2(3H)-one]",≤ 0.1,0.1 to 1,0.1 to 1
"N#CCN1c2cc(-c3ccccc3)c(-c3ccc(C4(N)CCC4)cc3)nc2OCS1(=O)=O [Example 76, 2-(6-(4-(1-aminocyclobutyl)phenyl)-2,2-dioxido-7-phenyl-1H-pyrido[3,2-e][1,3,4]oxathiazin-1-yl)acetonitrile]",≤ 0.1,0.1 to 1,> 10
"Nc1nnc2n1-c1cc(-c3ccccc3)c(-c3ccc(C4(N)CCC4)cc3)nc1OC2 [Example 50, 7-(4-(1-aminocyclobutyl)phenyl)-8-phenyl-4H-pyrido[2,3-b][1,2,4]triazolo[4,3-d][1,4]oxazin-1-amine]",0.1 to 1,≤ 0.1,1 to 10
"CC1(C)Cc2nc(-c3ccc(C4(N)CCC4)cc3)c(-c3ccccc3)cc2-c2n[nH]cc21 [Example 19, 1-(4-(4,4-dimethyl-8-phenyl-4,5-dihydro-2H-pyrazolo[3,4-f]quinolin-7-yl)phenyl)cyclobutanamine]",0.1 to 1,0.1 to 1,> 10
"C[C@]1(O)C[C@@](N)(c2ccc(-c3nc4c(cc3-c3ccccc3)N(CC#N)C(=O)CO4)cc2)C1 [Example 150, 2-(6-(4-((1r,3r)-1-amino-3-hydroxy-3-methylcyclobutyl)phenyl)-2-oxo-7-phenyl-2,3-dihydro-1H-pyrido[2,3-b][1,4]oxazin-1-yl)acetonitrile]",≤ 0.1,≤ 0.1,1 to 10
"CCc1nnc2n1-c1cc(-c3ccccc3)c(-c3ccc([C@]4(N)C[C@@H](O)C4)cc3)nc1OC2 [Example 136, (1s,3s)-3-Amino-3-(4-(1-ethyl-8-phenyl-4H-pyrido[2,3-b][1,2,4]triazolo[4,3-d][1,4]oxazin-7-yl)phenyl)cyclobutanol]",1 to 10,0.1 to 1,1 to 10
Nc1ncc2c(n1)-c1cc(-c3ccccc3)c(-c3ccc(C4(N)CCC4)cc3)nc1CC2 [Example 17],1 to 10,0.1 to 1,1 to 10
"CN1C(=O)CCNc2nc(-c3ccc(C4(N)CCC4)cc3)c(-c3ccccc3)cc21 [Example 114, 7-(4-(1-aminocyclobutyl)phenyl)-1-methyl-8-phenyl-4,5-dihydro-1H-pyrido[2,3-b][1,4]diazepin-2(3H)-one]",1 to 10,1 to 10,> 10
"NC1(c2ccc(-c3nc4c(cc3-c3ccccc3)/C(=N/O)CCC4)cc2)CCC1 [Example 2, 2-(4-(1-aminocyclobutyl)phenyl)-3-phenyl-7,13-dihydroquinolin-5(6H)-one oxime]",1 to 10,0.1 to 1,> 10
"C[C@]1(O)C[C@@](N)(c2ccc(-c3nc4c(cc3-c3ccccc3)-n3c(nnc3C(F)F)CO4)cc2)C1 [Example 128, (1r,3r)-3-amino-3-(4-(1-(difluoromethyl)-8-phenyl-4H-pyrido[2,3-b][1,2,4]triazolo[4,3-d][1,4]oxazin-7-0)phenyl)-1-methylcyclobutanol]",0.1 to 1,≤ 0.1,0.1 to 1
"N#CCN1CCc2nc(-c3ccc(C4(N)CCC4)cc3)c(-c3ccccc3)cc2C1=O [Example 24, 2-(2-(4-(1-aminocyclobutyl)phenyl)-5-oxo-3-phenyl-7,8-dihydro-1,6-naphthyridin-6(5H)-yl)acetonitrile]",0.1 to 1,1 to 10,> 10
"CN1CCOc2nc(-c3ccc(C4(N)CCC4)cc3)c(-c3ccccc3)cc21 [Example 40, 1-(4-(1-methyl-7-phenyl-2,3-dihydro-1H-pyrido[2,3-b][1,4]oxazin-6-yl)phenyl)cyclobutanamine]",1 to 10,0.1 to 1,> 10
"CN1C(=O)COc2nc(-c3ccc([C@]4(N)C[C@@H](O)C4)cc3)c(-c3ccccc3)cc21 [Example 97, 6-(4-((1s,3s)-1-amino-3-hydroxycyclobutyl)phenyl)-1-methyl-7-phenyl-1H-pyrido[2,3-b][1,4]oxazin-2(3H)-one]",1 to 10,0.1 to 1,1 to 10
"Cn1cc(N2C(=O)COc3nc(-c4ccc(C5(N)CCC5)cc4)c(-c4ccccc4)cc32)cn1 [Example 83, 6-(4-(1-aminocyclobutyl)phenyl)-1-(1-methyl-1H-pyrazol-4-yl)-7-phenyl-1H-pyrido[2,3-b][1,4]oxazin-2(3H)-one]",1 to 10,1 to 10,1 to 10
"C#CCN1C(=O)COc2nc(-c3ccc(C4(N)CCC4)cc3)c(-c3ccccc3)cc21 [Example 32, 6-(4-(1-aminocyclobutyl)phenyl)-7-phenyl-1-(prop-2-yn-1-yl)-1H-pyrido[2,3-b][1,4]oxazin-2(3H)-one]",0.1 to 1,0.1 to 1,> 10
"C[C@H]1Oc2nc(-c3ccc(C4(N)CCC4)cc3)c(-c3ccccc3)cc2N(CC#N)C1=O [Example 93, (R)-2-(6-(4-(1-aminocyclobutyl)phenyl)-3-methyl-2-oxo-7-phenyl-2,3-dihydro-1H-pyrido[2,3-b][1,4]oxazin-1-yl)acetonitrile]",≤ 0.1,≤ 0.1,1 to 10
"Cn1nc2n(c1=O)-c1cc(-c3ccccc3)c(-c3ccc(C4(N)CCC4)cc3)nc1OC2 [Example 99, 7-(4-(1-aminocyclobutyl)phenyl)-2-methyl-8-phenyl-2,4-dihydro-1H-pyrido[2,3-b][1,2,4]triazolo[4,3-d][1,4]oxazin-1-one]",0.1 to 1,0.1 to 1,1 to 10
